Measured values published in PubChem BioAssay (NCI).
Where “and” joins values, the source holds several entries; their conditions need not be identical. Equal entries are not always repeated.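 Assay format: 96-well plates, 48-hour exposure. The concentration for 50% growth inhibition is given as GI50. TGI: total growth inhibition.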

System: MDA-MB-468 breast
Experiment: NCI-60 cell line screen, 48 h

SMILES	GI50	TGI
COC(=O)Nc1nc2ccc(C(=O)c3cccc(I)c3)cc2[nH]1	0.0598 µM	2.14 µM
CCOC(=O)C1=C(Nc2ccc(OC)cc2)C(N)=NC1=N	0.474 µM	> 100 µM
CCN1CCN(c2ccc(NC(=O)Nc3nc4ccc(-c5ccccc5OC)cc4s3)cc2)CC1	2.17 µM	4.03 µM
CC1=CC2(C)/C=C(C)/C=C\CC(O)/C=C3/C=CC(=C4C(=O)OC2(CC1C)C4=O)OC3 (configuration not stated)	1.18 µM	2.85 µM
O=C(Nc1cccc([N+](=O)[O-])c1)c1cccc(C(=O)Nc2cccc([N+](=O)[O-])c2)c1	> 100 µM	> 100 µM
CCC[CH2][Sn]1([CH2]CCC)[O]C(=O)c2cccc([N+](=O)[O-])c2C(=O)[O]1	0.153 µM	0.449 µM
Nc1nc(-c2ccc3c(c2)/C(=C\c2cc(Br)c(O)c(Br)c2)C(=O)N3)cs1	6.5 µM	> 22.8 µM
CN1C(=O)N(C)C2C1NC(=S)N2/N=C/C=C/c1ccccc1[N+](=O)[O-] (configuration not stated)	0.431 µM	88.2 µM
CC(C)[C@@H](C(=O)O[C@@H]1/C=C/C(=O)O[C@@H](C)CCC/C=C/[C@@H]2C[C@H](O)C[C@H]21)N(C)C	1.53 µM	6.18 µM
Cc1ccc2sc3c(NCCCN)nc4ccccc4c3c(=O)c2c1	1.67 µM	3.36 µM
Cc1c(C(=O)Nc2ccc(N3C[C@@H](C)O[C@@H](C)C3)nc2)cccc1-c1ccc(OC(F)(F)F)cc1	3.11 µM and 5.62 µM	19.2 µM and 31.7 µM
Oc1c(C(c2ccc(F)cc2)N2CCCCC2)ccc2cncnc12 (configuration not stated)	0.494 µM	8.47 µM
COc1nn(C)cc1Nc1nccc(-c2c[nH]c3c(NC(=O)[C@@H](C)N4CCN(C)CC4)cccc23)n1	25 µM	67.8 µM
c1ccc2c(N=NSc3ncnc4nc[nH]c34)c3ccccc3nc2c1	0.549 µM	2.34 µM
COc1ccc(C(=O)/C=C/c2ccc(OCc3cccc(C(F)(F)F)c3)c(OC)c2)cc1OC	107 µM	> 1000 µM
Clc1cnc(Nc2ccc(OCCN3CCCC3)cc2)nc1NCc1ccco1	2.37 µM	5.1 µM
COc1ccc2c3ccnc(C(F)(F)F)c3n(CCCCN)c2c1	3.22 µM	13.4 µM
Cc1[nH]nc(C(F)(F)F)c1Cc1sc2c(c1C(=O)N1C[C@](C)(O)CO1)c(=O)n(C)c(=O)n2C(C)C	> 100 µM	> 100 µM
O=C(Nc1nc2c(C(F)(F)F)cccc2s1)c1cc(Cl)ccc1O	0.226 µM	0.749 µM
CC(C)(C)NCC(O)c1ccccc1Cl (configuration not stated)	> 100 µM	> 100 µM
Cc1ccsc1C(NC(=O)c1ccccc1)c1cc(Cl)c2cccnc2c1O (configuration not stated)	0.602 µM	5.63 µM

SMILES	GI50	TGI
CCOC(=O)N1CCC(N=C2CSc3nnc(-c4cc(C(F)(F)F)cc(C(F)(F)F)c4)n3N2)CC1	1.74 µM	4.67 µM
CCCCCCCCN(CCCCCCCC)CC(O)c1cc(-c2ccccc2)nc2ccc(OC)cc12 (configuration not stated)	39.2 µM	> 100 µM
CC1Cc2c(Cl)ncnc2N(C)c2ccccc21 (configuration not stated)	1.6 µM	6.81 µM
C[C@@H]1CC[C@@H]2[C@@H]1[C@H](OC(=O)/C=C/C1CCCCC1)[C@]1(C3CCCCC3)C[C@@H](OC(=O)CO)[C@@]2(C)O1	13.4 µM	27.5 µM
O=C1C2=C(C(=O)c3ccccc31)C(O)(S(=O)(=O)O)C(O)(S(=O)(=O)O)C1N=CC=CC21 (configuration not stated)	10.6 µM and 4.29 µM	37.5 µM and 21.2 µM
COc1cc(OC)c(/C=C/C(=O)c2c(OC)cc(OC)cc2OC)c(OC)c1	0.7 µM	4.55 µM
Cc1nnc(N/N=C/c2ccc([N+](=O)[O-])o2)[nH]c1=O	0.749 µM	12.2 µM
C=CCc1c(O)c(C(=O)/C=C/c2ccc(Cl)cc2)c(OC)c2ccoc12	2.27 µM	5.84 µM
COc1cc2ncnc(Oc3ccc(NC(=O)Nc4ccc(CN5CCOCC5)c(C(F)(F)F)c4)c4ccccc34)c2cc1OC	0.249 µM	1.85 µM
NC(=Nc1ccccc1)N/N=C/c1c[nH]c2ccccc12	0.501 µM	1.87 µM
Cn1nc(C(F)(F)F)cc1-c1cc(Cl)c(OCc2ccc(Cl)cc2)c(-c2ccc(Cl)c(C(F)(F)F)c2)c1O	0.833 µM	4.97 µM
COc1c(C(N)=O)cc(-c2ccc(Cl)cc2)cc1-c1ccc(S(N)(=O)=O)cc1	4.33 µM	11.1 µM
CN1CCN(Cc2ccc(NC(=O)c3cncc(C#Cc4ccc(N)nc4)c3)cc2C(F)(F)F)CC1	1.01 µM	4.3 µM
O=C1/C=C/[C@@H](O)[C@@H]2C[C@@H](O)C[C@H]2/C=C/CCC[C@H](CCO)O1	0.0239 µM	0.0757 µM
CCN(CC)CCOc1nc2ccccc2c2c1-c1ccc(OC)cc1C2=O	0.857 µM	3.26 µM
Cc1cc(OCc2ccc(C(F)(F)F)cc2)c2c(c1)C(=O)C=C(NCCN1CCCC1)C2=O	2 µM	4.55 µM
N#C/C(=C\c1ccc[nH]1)c1cc(-c2ccc(Cl)cc2)nn1-c1ccccc1	0.269 µM	2.23 µM
CCN1CCN(C(=O)[C@]23CC[C@@H](C)[C@H](C)[C@@H]2C2=CC[C@@H]4[C@@]5(C)CCC(=O)C(C)(C)[C@@H]5CC[C@@]4(C)[C@]2(C)CC3)CC1	0.931 µM	2.32 µM
CCOP(=O)(OCC)/C(=C/n1c(=S)[nH]c2ccccc21)C(=O)OC	> 100 µM	> 100 µM
CCC(=O)NC1=C(Cl)C(=O)C(NC(=O)CC)=C(Cl)C1=O	1.72 µM	3.66 µM
